Test results as given in ChEMBL document CHEMBL1201862, “PubChem BioAssay data set” (2004).
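In this assay, cells in 96-well plates receive the compound at five concentrations for 48 hours. Endpoints are linearly interpolated between the surrounding concentrations. GI50 marks 50% less growth.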 The source made the active and inactive calls. Rule as the data show it: active = GI50 up to about 1.1 µM and inactive = higher.

Legend:
Assay in all cases: growth of human tumour cells (NCI), 48 h
HT-29 = system: HT-29
SF-539 = system: SF-539
MDA-MB-231 = system: MDA-MB-231
KM12 = system: KM12
TK-10 = system: TK-10
EKVX = system: EKVX
SNB-19 = system: SNB-19
OVCAR-8 = system: OVCAR-8
SF-295 = system: SF-295
PC-3 = system: PC-3
SNB-75 = system: SNB-75
MDA-MB-435 = system: MDA-MB-435
ACHN = system: ACHN
HCT-116 = system: HCT-116
UO-31 = system: UO-31
SN12C = system: SN12C
SK-MEL-28 = system: SK-MEL-28
NCI-H226 = system: NCI-H226
A498 = system: A498
HL-60 = system: HL-60

COc1cc(N(C)C)c(OC)cc1/C=C\c1ccnc2ccccc12
GI50 (HT-29): 3.1 µM (inactive)
GI50 (SF-539): 2.33 µM (inactive)
GI50 (MDA-MB-231): 2.8 µM (inactive)
GI50 (KM12): 0.46 µM (active)
GI50 (TK-10): 2.12 µM (inactive)
GI50 (EKVX): 2.26 µM (inactive)
GI50 (SNB-19): > 10 µM (inactive)
GI50 (OVCAR-8): 9.44 µM (inactive)
GI50 (SF-295): 2.86 µM (inactive)
GI50 (PC-3): 2.92 µM (inactive)
GI50 (SNB-75): 2.57 µM (inactive)
GI50 (MDA-MB-435): 1.75 µM (inactive)
GI50 (ACHN): 6.12 µM (inactive)
GI50 (HCT-116): 3.09 µM (inactive)
GI50 (UO-31): > 10 µM (inactive)
GI50 (SN12C): 6.32 µM (inactive)
GI50 (SK-MEL-28): 1.86 µM (inactive)
GI50 (NCI-H226): 8.83 µM (inactive)
GI50 (A498): 3.1 µM (inactive)
GI50 (HL-60): 3.7 µM (inactive)

CC(=O)/C(=N\N=C(N)N)c1ccccc1
GI50 (HT-29): > 100 µM (inactive)
GI50 (SF-539): > 100 µM (inactive)
GI50 (MDA-MB-231): > 100 µM (inactive)
GI50 (KM12): > 100 µM (inactive)
GI50 (TK-10): > 100 µM (inactive)
GI50 (EKVX): 68.1 µM (inactive)
GI50 (SNB-19): > 100 µM (inactive)
GI50 (OVCAR-8): > 100 µM (inactive)
GI50 (SF-295): > 100 µM (inactive)
GI50 (PC-3): > 100 µM (inactive)
GI50 (SNB-75): > 100 µM (inactive)
GI50 (MDA-MB-435): > 100 µM (inactive)
GI50 (ACHN): > 100 µM (inactive)
GI50 (HCT-116): > 100 µM (inactive)
GI50 (UO-31): > 100 µM (inactive)
GI50 (SN12C): > 100 µM (inactive)
GI50 (SK-MEL-28): > 100 µM (inactive)
GI50 (NCI-H226): > 100 µM (inactive)
GI50 (A498): > 100 µM (inactive)

C[N+]1(Cc2ccc(Cl)c(Cl)c2)CCCC1C1CCCN(Cc2ccc(Cl)c(Cl)c2)C1 (configuration not stated)
GI50 (HT-29): > 100 µM (inactive)
GI50 (SF-539): > 100 µM (inactive)
GI50 (MDA-MB-231): > 100 µM (inactive)
GI50 (KM12): > 100 µM (inactive)
GI50 (TK-10): > 100 µM (inactive)
GI50 (EKVX): 46 µM (inactive)
GI50 (SNB-19): > 100 µM (inactive)
GI50 (OVCAR-8): > 100 µM (inactive)
GI50 (SF-295): > 100 µM (inactive)
GI50 (PC-3): > 100 µM (inactive)
GI50 (SNB-75): > 100 µM (inactive)
GI50 (MDA-MB-435): > 100 µM (inactive)
GI50 (ACHN): > 100 µM (inactive)
GI50 (HCT-116): > 100 µM (inactive)
GI50 (UO-31): > 100 µM (inactive)
GI50 (SN12C): > 100 µM (inactive)
GI50 (SK-MEL-28): > 100 µM (inactive)
GI50 (A498): > 100 µM (inactive)

NC(Cc1ccc(O)c(O)c1)P(=O)(O)O (configuration not stated)
GI50 (HT-29): > 100 µM (inactive)
GI50 (SF-539): > 100 µM (inactive)
GI50 (MDA-MB-231): > 100 µM (inactive)
GI50 (KM12): > 100 µM (inactive)
GI50 (TK-10): > 100 µM (inactive)
GI50 (SNB-19): > 100 µM (inactive)
GI50 (OVCAR-8): > 100 µM (inactive)
GI50 (SF-295): > 100 µM (inactive)
GI50 (PC-3): > 100 µM (inactive)
GI50 (SNB-75): > 100 µM (inactive)
GI50 (MDA-MB-435): > 100 µM (inactive)
GI50 (ACHN): > 100 µM (inactive)
GI50 (HCT-116): > 100 µM (inactive)
GI50 (UO-31): > 100 µM (inactive)
GI50 (SN12C): > 100 µM (inactive)
GI50 (SK-MEL-28): > 100 µM (inactive)
GI50 (NCI-H226): > 100 µM (inactive)
GI50 (A498): > 100 µM (inactive)
GI50 (HL-60): 16.2 µM (inactive)

CSc1nc(N)c(NC2OC(CO)C(O)C2O)c(=O)[nH]1 (configuration not stated)
GI50 (HT-29): > 100 µM (inactive)
GI50 (SF-539): > 100 µM (inactive)
GI50 (MDA-MB-231): > 100 µM (inactive)
GI50 (KM12): > 100 µM (inactive)
GI50 (TK-10): > 100 µM (inactive)
GI50 (EKVX): > 100 µM (inactive)
GI50 (SNB-19): > 100 µM (inactive)
GI50 (OVCAR-8): > 100 µM (inactive)
GI50 (SF-295): > 100 µM (inactive)
GI50 (PC-3): > 100 µM (inactive)
GI50 (SNB-75): > 100 µM (inactive)
GI50 (MDA-MB-435): > 100 µM (inactive)
GI50 (HCT-116): > 100 µM (inactive)
GI50 (UO-31): > 100 µM (inactive)
GI50 (SN12C): > 100 µM (inactive)
GI50 (SK-MEL-28): > 100 µM (inactive)
GI50 (NCI-H226): > 100 µM (inactive)
GI50 (A498): > 100 µM (inactive)
GI50 (HL-60): > 100 µM (inactive)

CC(=O)Nc1c(C)cc2c(nc3n2CCC3OC(C)=O)c1[N+](=O)[O-] (configuration not stated)
GI50 (HT-29): > 100 µM (inactive)
GI50 (SF-539): > 100 µM (inactive)
GI50 (MDA-MB-231): > 100 µM (inactive)
GI50 (KM12): > 100 µM (inactive)
GI50 (EKVX): > 100 µM (inactive)
GI50 (SNB-19): > 100 µM (inactive)
GI50 (OVCAR-8): > 100 µM (inactive)
GI50 (SF-295): > 100 µM (inactive)
GI50 (PC-3): > 100 µM (inactive)
GI50 (SNB-75): > 100 µM (inactive)
GI50 (MDA-MB-435): > 100 µM (inactive)
GI50 (ACHN): > 100 µM (inactive)
GI50 (HCT-116): > 100 µM (inactive)
GI50 (UO-31): > 100 µM (inactive)
GI50 (SN12C): > 100 µM (inactive)
GI50 (SK-MEL-28): > 100 µM (inactive)
GI50 (NCI-H226): > 100 µM (inactive)
GI50 (A498): > 100 µM (inactive)
GI50 (HL-60): > 100 µM (inactive)

COc1ccc(C23OCC(Cc4cc(OC)c(OC)cc42)C3COC(C)=O)cc1OC (configuration not stated)
GI50 (HT-29): > 100 µM (inactive)
GI50 (SF-539): > 100 µM (inactive)
GI50 (MDA-MB-231): > 100 µM (inactive)
GI50 (KM12): > 100 µM (inactive)
GI50 (TK-10): > 100 µM (inactive)
GI50 (EKVX): > 100 µM (inactive)
GI50 (SNB-19): > 100 µM (inactive)
GI50 (SF-295): > 100 µM (inactive)
GI50 (PC-3): > 100 µM (inactive)
GI50 (SNB-75): > 100 µM (inactive)
GI50 (MDA-MB-435): > 100 µM (inactive)
GI50 (ACHN): > 100 µM (inactive)
GI50 (HCT-116): > 100 µM (inactive)
GI50 (UO-31): > 100 µM (inactive)
GI50 (SK-MEL-28): > 100 µM (inactive)
GI50 (NCI-H226): 5.66 µM (inactive)
GI50 (A498): > 100 µM (inactive)
GI50 (HL-60): > 100 µM (inactive)

Nc1nc(N)c(/N=N/c2ccc(C(=O)O)c(O)c2)c(N)n1
GI50 (HT-29): > 100 µM (inactive)
GI50 (SF-539): > 100 µM (inactive)
GI50 (MDA-MB-231): > 100 µM (inactive)
GI50 (KM12): > 100 µM (inactive)
GI50 (TK-10): > 100 µM (inactive)
GI50 (EKVX): 91.6 µM (inactive)
GI50 (SNB-19): > 100 µM (inactive)
GI50 (OVCAR-8): > 100 µM (inactive)
GI50 (SF-295): > 100 µM (inactive)
GI50 (PC-3): > 100 µM (inactive)
GI50 (SNB-75): > 100 µM (inactive)
GI50 (MDA-MB-435): > 100 µM (inactive)
GI50 (ACHN): > 100 µM (inactive)
GI50 (HCT-116): > 100 µM (inactive)
GI50 (UO-31): > 100 µM (inactive)
GI50 (SN12C): > 100 µM (inactive)
GI50 (SK-MEL-28): > 100 µM (inactive)
GI50 (NCI-H226): > 100 µM (inactive)
GI50 (A498): > 100 µM (inactive)

CC1(C)CC(=O)C2=C(C1)c1c(ccc3ccccc13)NC2c1cn(Cc2ccc(Cl)cc2)c2ccccc12 (configuration not stated)
GI50 (HT-29): > 100 µM (inactive)
GI50 (SF-539): > 100 µM (inactive)
GI50 (MDA-MB-231): > 100 µM (inactive)
GI50 (KM12): > 100 µM (inactive)
GI50 (TK-10): 27.7 µM (inactive)
GI50 (EKVX): 30.7 µM (inactive)
GI50 (SNB-19): 75 µM (inactive)
GI50 (OVCAR-8): > 100 µM (inactive)
GI50 (SF-295): 31.2 µM (inactive)
GI50 (PC-3): > 100 µM (inactive)
GI50 (SNB-75): > 100 µM (inactive)
GI50 (MDA-MB-435): > 100 µM (inactive)
GI50 (ACHN): 61.9 µM (inactive)
GI50 (HCT-116): 9.35 µM (inactive)
GI50 (UO-31): > 100 µM (inactive)
GI50 (SN12C): > 100 µM (inactive)
GI50 (A498): 2.55 µM (inactive)
GI50 (HL-60): 37.8 µM (inactive)

CC[C@H](C)[C@@H]([C@@H](CC(=O)N1CCC[C@H]1[C@H](OC)[C@@H](C)C(=O)NCCc1ccccc1)OC)N(C)C(=O)C(NC(=O)[C@H](C(C)C)N(C)C)C(C)C (some centres not stated)
GI50 (HT-29): 8.89e-05 µM (active)
GI50 (SF-539): 0.000232 µM (active)
GI50 (MDA-MB-231): 0.000526 µM (active)
GI50 (KM12): 8.57e-05 µM (active)
GI50 (TK-10): 0.000676 µM (active)
GI50 (EKVX): 0.000964 µM (active)
GI50 (SNB-19): 0.000395 µM (active)
GI50 (OVCAR-8): 0.000333 µM (active)
GI50 (PC-3): 0.000119 µM (active)
GI50 (SNB-75): 0.000275 µM (active)
GI50 (MDA-MB-435): 3.18e-05 µM (active)
GI50 (ACHN): 0.000757 µM (active)
GI50 (HCT-116): 0.000255 µM (active)
GI50 (UO-31): 0.00103 µM (active)
GI50 (SN12C): 0.000361 µM (active)
GI50 (SK-MEL-28): > 10 µM (inactive)
GI50 (NCI-H226): 0.00064 µM (active)
GI50 (A498): 0.000266 µM (active)
GI50 (HL-60): 7.02e-05 µM (active)

CCCCCCNC(=S)N/N=C(\C)c1ccccn1
GI50 (SF-539): 1.84 µM (inactive)
GI50 (MDA-MB-231): 0.217 µM (active)
GI50 (KM12): 0.394 µM (active)
GI50 (TK-10): 0.55 µM (active)
GI50 (EKVX): 0.0176 µM (active)
GI50 (SNB-19): 3.4 µM (inactive)
GI50 (OVCAR-8): 0.0912 µM (active)
GI50 (SF-295): 0.407 µM (active)
GI50 (PC-3): < 0.01 µM (active)
GI50 (SNB-75): 3.99 µM (inactive)
GI50 (MDA-MB-435): 1.53 µM (inactive)
GI50 (ACHN): < 0.0113 µM (active)
GI50 (HCT-116): < 0.01 µM (active)
GI50 (UO-31): 0.124 µM (active)
GI50 (SN12C): 1.41 µM (inactive)
GI50 (SK-MEL-28): 2.56 µM (inactive)
GI50 (NCI-H226): 0.138 µM (active)
GI50 (A498): 3.18 µM (inactive)
GI50 (HL-60): < 0.01 µM (active)
